Source: US3984563A, “Antiinflammatory 2-imino-indolines and their pharmaceutical compositions” (Gruppo Lepetit S.p.A., priority 1973, dated 1976)
Counter-ions that a name gives are not always drawn. Like-named read-outs stand apart in the source and are kept apart here.

Experiments:
carrageenin edema = carrageenin edema test in rats (antiinflammatory activity); assay type: in vivo; conditions: Rattus norvegicus, po, read-out: % Decrease of the edema; for inhibition in vivo at 50 mg/kg: dose 50 mg/kg p.o. in rats; for inhibition in vivo at 200 mg/kg: dose 200 mg/kg p.o. in rats; for inhibition in vivo at 100 mg/kg: dose 100 mg/kg p.o. in rats
Excerpt: The anti-inflamatory activity of the indole derivatives is evidenced by means of the carrageenin edema test in rats. In representative experiments compounds of formula I provoked a substantial decrease of the induced edema at dosage levels from about one fifth to about one tenth of their respective LD50 values. The following table reports the results of the experiments:
The following table reports the percent inhibitory effect of some representative compounds of the formula II in the carrageenin edema test.

[1] = LD50 p.o. in rats (acute toxicity); conditions: rat, in vivo, po
[2] = system: pain threshold of inflammed foot of the rat; test: analgesic effect on pain threshold of inflamed foot of the rat (Randall and Selitto); assay type: in vivo; conditions: vs acetylsalicylic acid
[3] = compounds of the examples (formula I)

Compound	inhibition in vivo at 50 mg/kg (carrageenin edema; hydrazines of formula II) [%]	LD50 ([1]; hydrazines of formula II) [mg/kg]	LD50 [1, 3] [mg/kg]	other results
CCC(=O)NN(C)c1ccccc1 [1-Phenyl-1-methyl-2-propionylhydrazine]	30	500	–	–
CN1C(=N)C2(CCCCC2)c2ccccc21 [Example 13, 2'-imino-1'-methyl-spyro(cyclohexane-1,3'-indoline)hydrochloride]	–	–	100	inhibition in vivo at 8 mg/kg (carrageenin edema; compounds of the examples (formula I), dose 8 mg/kg p.o. in rats): 45%; inhibition in vivo at 20 mg/kg (carrageenin edema; compounds of the examples (formula I), dose 20 mg/kg p.o. in rats): 60%; analgesic activity relative to acetylsalicylic acid (times as active) [2]: about 25 times
CN(NC(=O)CCCN1C(=O)c2ccccc2C1=O)c1ccccc1 [1-Phenyl-1-methyl-1-( -phthalimido-butyryl)-hydrazine]	–	> 1000	–	inhibition in vivo at 200 mg/kg (carrageenin edema; hydrazines of formula II): 28%
COc1ccc(N(C)NC(=O)C(C)C)cc1 [1-(p-Methoxyphenyl)-1-methyl-2-isobutyrylhydrazine]	30	500	–	–
CN(NC(=O)C1CC1)c1ccccc1 [1-Phenyl-1-methyl-2-cyclopropanoylhydrazine]	35	500	–	–
CC(C)C(=O)NN(C)c1ccccc1 [1-Phenyl-1-methyl-2-isobutyrylhydrazine]	36	500	–	–
CN(NC(=O)C1CCCC1)c1ccccc1 [1-Phenyl-1-methyl-2-cyclopentanoylhydrazine]	37	500	–	–
Cn1c(NC(=O)Nc2ccccc2)c(-c2ccc(Cl)cc2)c2ccccc21 [Example 34, 3-(p-Chlorophenyl)-1-methyl-2-phenylureidoindole]	–	–	> 1000	inhibition in vivo at 200 mg/kg (carrageenin edema; [3]): 33%
CCC(C)C(=O)NN(C)c1ccccc1 (stereo not drawn) [1-Phenyl-1-methyl-2-(2-methylbutyryl)-hydrazine]	–	> 1000	–	inhibition in vivo at 100 mg/kg (carrageenin edema; hydrazines of formula II): 40%
CN(NC(=O)C1CCCCC1)c1ccccc1 [1-Phenyl-1-methyl-2-cyclohexanoyl hydrazine]	37	500	–	–
CC(=O)NN(C)c1ccccc1 [1-Phenyl-1-methyl-2-acetylhydrazine]	57	500	–	–
COc1cccc(-c2c(N)n(C)c3ccccc23)c1 [Example 9, 2-amino-3-(m-anisyl)-1-methylindole hydrochloride]	–	–	> 1000	inhibition in vivo at 100 mg/kg (carrageenin edema; [3]): 30%; inhibition in vivo at 200 mg/kg (carrageenin edema; [3]): 41%
CN1C(=NC(=O)c2ccccc2)C(C)(C)c2ccccc21 [Example 28, 2-Benzoylimino-1,3,3-trimethylindoline]	–	–	> 1000	inhibition in vivo at 100 mg/kg (carrageenin edema; [3]): 35%; inhibition in vivo at 200 mg/kg (carrageenin edema; [3]): 45%
